In patent EP0558245A1, “Heterobicyclic compounds as antagogists of alpha-1 adrenergic and SHT1A receptors” (priority 1992, dated 1993) one finds LD50 and IC50 data, which are given here for nine compounds.

The term IC50 denotes the point on the concentration scale where inhibition reaches its midpoint.

A short description of data set [1]: Acute toxicity in mice after intraperitoneal and oral administration. The following applies: mouse, in vivo, female albino Swiss mice, mortality recorded 7 days after administration. The method in brief:
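Female albino Swiss mice (20-30 g) dosed i.p. or orally at four log-scaled doses in 0.5% Methocel (10 ml/kg), 4 mice/dose. Mortality recorded at 7 days; LD₅₀ with fiducial limits by Weil's method.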

A further data set deals with T1, 5HT1A receptors (Rattus norvegicus, UniProt P19327).
T1 construct: Rat hippocampi were homogenized; from tissue; host or cells: rat hippocampus membranes
T1 sequence (P19327 1-422): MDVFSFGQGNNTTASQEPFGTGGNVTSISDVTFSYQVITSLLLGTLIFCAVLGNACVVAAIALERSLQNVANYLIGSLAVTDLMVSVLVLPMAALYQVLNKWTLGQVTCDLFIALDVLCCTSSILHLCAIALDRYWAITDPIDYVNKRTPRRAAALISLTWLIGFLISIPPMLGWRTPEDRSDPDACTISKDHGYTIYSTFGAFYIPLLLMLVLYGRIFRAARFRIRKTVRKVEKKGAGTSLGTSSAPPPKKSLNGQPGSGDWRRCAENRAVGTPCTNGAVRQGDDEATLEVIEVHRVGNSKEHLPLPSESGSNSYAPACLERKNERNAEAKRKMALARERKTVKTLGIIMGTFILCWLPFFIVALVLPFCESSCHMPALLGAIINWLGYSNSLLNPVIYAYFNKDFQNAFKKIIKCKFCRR
The data set is described as follows: [3H]8-OH-DPAT binding (5HT1A receptors), rat hippocampus membranes. The following applies: rat hippocampus crude membranes, [3H]8-OH-DPAT 1.0 nM, 25°C 30 min; read-out: Receptor Binding IC50 (nM) 5-HT1a.

In a further data set the target is α₁ receptors. The data set is described as follows: [3H]prazosin binding (α1 receptors), rat cerebral cortex membranes. The following applies: rat cerebral cortex crude membranes, [3H]prazosin 0.35 nM, 25°C 30 min; read-out: Receptor Binding IC50 (nM) α1.
For a further data set, the system named is rat bladder strips. The data set is described as follows: K+-induced contractions of rat bladder strips. In kind it is cell-based. The procedure:
The whole bladder of the rat was removed and immediately placed in Krebs solution warmed at 37°C. […] Each strip was placed in a 10 ml organ bath and connected, under a constant load of 1 g, to an isometric strain gauge (DY-1 Basile, Comerio, Varese, Italy). […] After a 60 minutes equilibration period the strips were exposed to 80 mM KCl (final concentration). […] When the tonic contraction was stable, the strips were washed and 30 minutes later a new contraction was induced. After having recorded two or more reproducible responses, one concentration of the tested drugs was added to the bath and 30 minutes later a new contraction was induced. The experimental groups consisted of at least two preparations taken from different animals for each concentration of drug tested. The IC₅₀ values of inhibition of agonist-induced contractions were evaluated by linear regression analysis.

The mark [2] stands for this setting: ip, intraperitoneal, read-out: Acute Toxicity in Mice LD50 (mg/kg) i.p.
The mark [3] stands for this setting: oral, read-out: Acute Toxicity in Mice LD50 (mg/kg) p.o.
Setting [4] is: 80 mM KCl, phasic contraction, drug added 30 minutes before, read-out: K+ Stimulation of Rat Bladder IC50 (μM) Contractions Phasic.
[5] abbreviates: 80 mM KCl, tonic contraction, drug added 30 minutes before, read-out: K+ Stimulation of Rat Bladder IC50 (μM) Contractions Tonic.

Like-named read-outs stand apart in the source and are kept apart here.

Consider `COc1ccccc1N1CCN(CCN(C)C(=O)c2cccc3c(=O)c(C)c(-c4ccccc4)oc23)CC1.Cl` [Example 16, 8-{N-methyl-2-[4-(2-methoxyphenyl)-1-piperazinyl]-ethylcarbamoyl}-3-methyl-4-oxo-2-phenyl-4H-1-benzopyran monohydrochloride], for which the values for the LD50 at 168 h in data set [1] (setting [2]) and in data set [1] (setting [3]) were 345 mg/kg and 778 mg/kg, respectively. Moreover, the IC50 at 5HT1A receptors worked out at 1050 nM; on α₁ receptors it was 220 nM; in the data set with rat bladder strips (setting [4]) it was 1.6 µM; in the data set on rat bladder strips (setting [5]) it was 2.2 µM.
For the compound `COc1ccccc1N1CCN(CCC(O)c2cccc3c(=O)c(C)c(-c4ccccc4)oc23)CC1.Cl` (stereo not drawn) [Example 20, 8-{1-Hydroxy-3-[4-(2-methoxyphenyl)-1-piperazinyl]-propyl}-3-methyl-4-oxo-2-phenyl-4H-1-benzopyran hydrochloride], the LD50 at 168 h came out at 297 mg/kg in data set [1] (setting [2]) and 594 mg/kg in data set [1] (setting [3]). Besides, the IC50 came out at 85 nM on 5HT1A receptors, 169 nM on α₁ receptors, 2.7 µM in the data set on rat bladder strips (setting [4]) and 2.5 µM in the data set with rat bladder strips (setting [5]).
For the compound `COc1ccccc1N1CCN(CCCC(=O)Nc2cccc3c(=O)c(C)c(-c4ccccc4)oc23)CC1` [Example 69, 8-{4-[4-(2-methoxyphenyl)-1-piperazinyl]-butyramido}-3-methyl-4-oxo-2-phenyl-4H-1-benzopyran methanesulphonate hemihydrate], the LD50 at 168 h in data set [1] (setting [2]) came to 344 mg/kg. Moreover, the half-inhibitory concentration (IC50) on 5HT1A receptors was 87 nM; on α₁ receptors, 16 nM.
As to `COc1ccccc1N1CCN(CCO/N=C/c2cccc3c(=O)c(C)c(-c4ccccc4)oc23)CC1` [Example 70, E-8-{2-[4-(2-methoxyphenyl)-1-piperazinyl]-ethoxyimino-methyl}-3-methyl-4-oxo-2-phenyl-4H-1-benzopyran], the LD50 at 168 h in data set [1] (setting [2]) was more than 500 mg/kg; in data set [1] (setting [3]), 1870 mg/kg. For the same compound, the 50% inhibitory concentration (IC50) on 5HT1A receptors came out at 85 nM; on α₁ receptors, 53 nM.
For `COc1ccccc1N1CCN(CCNC(=O)/C=C/c2cccc3c(=O)c(C)c(-c4ccccc4)oc23)CC1` [Example 72, E-8-<2-{2-[4-(2-methoxyphenyl)-1-piperazinyl]-ethylcarbamoyl}-ethenyl>-3-methyl-4-oxo-2-phenyl-4H-1-benzopyran methanesulphonate 1.2 H₂0], the LD50 at 168 h in data set [1] (setting [2]) was 479 mg/kg; in data set [1] (setting [3]), more than 2000 mg/kg. Besides, the IC50 on 5HT1A receptors worked out at 111 nM; at α₁ receptors it was 145 nM.
As for `COc1ccccc1N1CCN(CCCC[S+]([O-])c2cccc3c(=O)c(C)c(-c4ccccc4)oc23)CC1.CS(=O)(=O)O` (stereo not drawn) [Example 73, 8-{4-[4-(2-methoxyphenyl)-1-piperazinyl]-butylsulphinyl}-3-methyl-4-oxo-2-phenyl-4H-1-benzopyran methanesulphonate], the LD50 at 168 h was found to be 202 mg/kg in data set [1] (setting [2]) and 462 mg/kg in data set [1] (setting [3]). Moreover, the half-maximal inhibitory concentration (IC50) on 5HT1A receptors is 89 nM; on α₁ receptors, 6 nM.
On to `COc1ccccc1N1CCN(CCOC(=O)/C=C/c2cccc3c(=O)c(C)c(-c4ccccc4)oc23)CC1` [Example 79, (E)-8-<2-{2-[4-(2-methoxyphenyl)-1-piperazinyl]-ethoxycarbonyl}-ethenyl>-3-methyl-4-oxo-2-phenyl-4H-1-benzopyran methanesulphonate], for which the LD50 at 168 h is more than 500 mg/kg in data set [1] (setting [2]) and more than 2000 mg/kg in data set [1] (setting [3]). Further, the half-maximal inhibitory concentration (IC50) on 5HT1A receptors was found to be 141 nM; on α₁ receptors, 77 nM.
For `COc1ccccc1N1CCN(CCCNC(=O)c2cccc3c2OCCC3=O)CC1.CS(=O)(=O)O` [Example 87, 8-{3-[4-(2-methoxyphenyl)-1-piperazinyl]-propylcarbamoyl}-2,3-dihydro-4-oxo-4H-1-benzopyran methanesulphonate], in that order: 237 mg/kg, more than 500 mg/kg, 107 nM and 119 nM.
Consider `COc1ccccc1N1CCN(CCCCOc2cccc3c(=O)c(C)c(-c4ccccc4)oc23)CC1.Cl.Cl` [dihydrochloride], for which the IC50 is 53 nM on 5HT1A receptors, 43 nM at α₁ receptors, 0.7 µM with rat bladder strips (read-out: K+ Stimulation of Rat Bladder IC50 (μM) Contractions Phasic) and 1.4 µM in the data set on rat bladder strips (read-out: K+ Stimulation of Rat Bladder IC50 (μM) Contractions Tonic).
